Results taken from ChEMBL document CHEMBL1201862, “PubChem BioAssay data set” (2004).
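Values below derive from 48-hour exposures of cells grown in 96-well plates, with endpoints linearly interpolated between the two concentrations bracketing the appropriate inhibition level. GI50 is the concentration that inhibits growth by half.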 Active and inactive are the calls of the source. Rule as the data show it: active = GI50 up to about 1.1 µM and inactive = higher.

Tests used:
Assay in all cases: inhibition of tumour cell growth, NCI panel, 48 h
NCI/ADR-RES = test system: NCI/ADR-RES
HCT-15 = test system: HCT-15
KM12 = test system: KM12
RPMI-8226 = test system: RPMI-8226
CAKI-1 = test system: CAKI-1
K562 = test system: K562
OVCAR-4 = test system: OVCAR-4
NCI-H522 = test system: NCI-H522
UO-31 = test system: UO-31
HCC 2998 = test system: HCC 2998
SW-620 = test system: SW-620
NCI-H460 = test system: NCI-H460
IGROV-1 = test system: IGROV-1
A498 = test system: A498
SF-295 = test system: SF-295
HOP-92 = test system: HOP-92
UACC-62 = test system: UACC-62
Hs-578T = test system: Hs-578T
SK-MEL-5 = test system: SK-MEL-5
SF-539 = test system: SF-539

SMILES	GI50 (NCI/ADR-RES)	GI50 (HCT-15) [µM]	GI50 (KM12)	GI50 (RPMI-8226)	GI50 (CAKI-1)	GI50 (K562)	GI50 (OVCAR-4)	GI50 (NCI-H522)	GI50 (UO-31)	GI50 (HCC 2998)	GI50 (SW-620)	GI50 (NCI-H460)	GI50 (IGROV-1)	GI50 (A498)	GI50 (SF-295)	GI50 (HOP-92)	GI50 (UACC-62)	GI50 (Hs-578T)	GI50 (SK-MEL-5)	GI50 (SF-539)
CC1NC(=O)C2Cc3ccc(O)c(c3)Oc3ccc(cc3)C(O)C(C(=O)N2C)N(C)C(=O)C(C)NC(=O)C(Cc2ccc(O)cc2)N(C)C(=O)C(C)NC1=O (stereo not given)	> 100 µM (inactive)	> 100	9.68 µM (inactive)	12 µM (inactive)	> 100 µM (inactive)	> 100 µM (inactive)	35.1 µM (inactive)	9.44 µM (inactive)	> 100 µM (inactive)	22.2 µM (inactive)	23.4 µM (inactive)	31.3 µM (inactive)	4.85 µM (inactive)	> 100 µM (inactive)	> 100 µM (inactive)	15.8 µM (inactive)	19.5 µM (inactive)	5.09 µM (inactive)	31.6 µM (inactive)	6.71 µM (inactive)
CCCCCc1cc2c(cc1O)CC[C@@H]1[C@@H]2CC[C@]2(C)[C@@H](O)CC[C@@H]12	18.9 µM (inactive)	15.9	10.9 µM (inactive)	19.1 µM (inactive)	21.5 µM (inactive)	16.7 µM (inactive)	21.6 µM (inactive)	18.8 µM (inactive)	13.9 µM (inactive)	24.3 µM (inactive)	26.4 µM (inactive)	17.4 µM (inactive)	18.5 µM (inactive)	21.4 µM (inactive)	13.4 µM (inactive)	14.3 µM (inactive)	19.2 µM (inactive)	19.8 µM (inactive)	19.8 µM (inactive)	23.8 µM (inactive)
CCCC1NC(C#N)(C#N)C(CCC)NC1(C#N)C#N (stereo not given)	0.243 µM (active)	0.105	9.25 µM (inactive)	< 0.01 µM (active)	0.0573 µM (active)	0.0589 µM (active)	1.18 µM (inactive)	< 0.0105 µM (active)	0.0787 µM (active)	7.96 µM (inactive)	< 0.012 µM (active)	14 µM (inactive)	1.42 µM (inactive)	21.7 µM (inactive)	22.7 µM (inactive)	0.488 µM (active)	17.4 µM (inactive)	3.07 µM (inactive)	1.44 µM (inactive)	0.197 µM (active)
COc1ccc(C2SCC(=O)N2NC2=NC(=O)CC(=O)N2)cc1 (stereo not given)	> 100 µM (inactive)	> 100	> 100 µM (inactive)	> 100 µM (inactive)	> 100 µM (inactive)	> 100 µM (inactive)	> 100 µM (inactive)	> 100 µM (inactive)	> 100 µM (inactive)	> 100 µM (inactive)	> 100 µM (inactive)	> 100 µM (inactive)	> 100 µM (inactive)	> 100 µM (inactive)	> 100 µM (inactive)	> 100 µM (inactive)	> 100 µM (inactive)	> 100 µM (inactive)	> 100 µM (inactive)	> 100 µM (inactive)
CSc1ccc(NC(=S)NN(C)C)cc1	> 10 µM (inactive)	> 10	> 10 µM (inactive)	> 10 µM (inactive)	> 10 µM (inactive)	> 10 µM (inactive)	> 10 µM (inactive)	> 10 µM (inactive)	> 10 µM (inactive)	> 10 µM (inactive)	> 10 µM (inactive)	> 10 µM (inactive)	> 10 µM (inactive)	> 10 µM (inactive)	> 10 µM (inactive)	> 10 µM (inactive)	> 10 µM (inactive)	> 10 µM (inactive)	> 10 µM (inactive)	> 10 µM (inactive)
COC(=O)C1Cc2ccc(O)c(O)c2CN1 (stereo not given)	22.1 µM (inactive)	29.7	69.3 µM (inactive)	24.2 µM (inactive)	> 100 µM (inactive)	28.8 µM (inactive)	19.3 µM (inactive)	> 100 µM (inactive)	22.5 µM (inactive)	> 100 µM (inactive)	21.3 µM (inactive)	56.9 µM (inactive)	35.8 µM (inactive)	> 100 µM (inactive)	7.41 µM (inactive)	26.4 µM (inactive)	19.7 µM (inactive)	25.4 µM (inactive)	15.1 µM (inactive)	18.4 µM (inactive)
CN(C)c1n/c(=N/Cc2ccccc2)ss1	> 10 µM (inactive)	> 10	> 10 µM (inactive)	2.9 µM (inactive)	> 10 µM (inactive)	3.21 µM (inactive)	> 10 µM (inactive)	2.61 µM (inactive)	9.25 µM (inactive)	> 9.64 µM (inactive)	> 10 µM (inactive)	> 10 µM (inactive)	> 10 µM (inactive)	> 10 µM (inactive)	> 10 µM (inactive)	> 10 µM (inactive)	> 10 µM (inactive)	> 10 µM (inactive)	> 10 µM (inactive)	> 10 µM (inactive)
O=C1C=CC(=O)C(CNc2ccc(C(=O)OCc3ccccc3)cc2)=C1	4 µM (inactive)	2.59	9.35 µM (inactive)	1.47 µM (inactive)	1.38 µM (inactive)	2.62 µM (inactive)	3.81 µM (inactive)	1.39 µM (inactive)	2.29 µM (inactive)	16 µM (inactive)	4.99 µM (inactive)	16.9 µM (inactive)	3.27 µM (inactive)	11.2 µM (inactive)	17.7 µM (inactive)	1.76 µM (inactive)	8.97 µM (inactive)	6.12 µM (inactive)	3.19 µM (inactive)	2.72 µM (inactive)
Nc1ccn(CC(O)c2cc3ccccc3[nH]2)c(=O)n1 (stereo not given)	> 100 µM (inactive)	> 100	> 100 µM (inactive)	> 100 µM (inactive)	> 100 µM (inactive)	> 100 µM (inactive)	> 100 µM (inactive)	> 100 µM (inactive)	> 100 µM (inactive)	> 100 µM (inactive)	> 100 µM (inactive)	> 100 µM (inactive)	> 100 µM (inactive)	> 100 µM (inactive)	> 100 µM (inactive)	> 100 µM (inactive)	> 100 µM (inactive)	> 100 µM (inactive)	> 100 µM (inactive)	> 100 µM (inactive)
COc1ccc(-c2cc(-c3ccccc3)nc(N)c2-c2ccc3ccccc3c2)cc1	1.98 µM (inactive)	1.54	1.73 µM (inactive)	2.13 µM (inactive)	3.46 µM (inactive)	2.94 µM (inactive)	0.979 µM (active)	< 0.01 µM (active)	1.99 µM (inactive)	1.83 µM (inactive)	1.75 µM (inactive)	1.52 µM (inactive)	1.68 µM (inactive)	2.04 µM (inactive)	1.87 µM (inactive)	1.5 µM (inactive)	1.58 µM (inactive)	1.65 µM (inactive)	1.77 µM (inactive)	2.1 µM (inactive)
CS[C@]12C(=O)C[C@@]3(C)[C@@H](CC[C@]3(O)C(=O)CO)[C@@H]1CCC1=CC(=O)CC[C@@]12C	> 100 µM (inactive)	60.7	> 100 µM (inactive)	30.1 µM (inactive)	> 100 µM (inactive)	37.1 µM (inactive)	> 100 µM (inactive)	47.9 µM (inactive)	95.5 µM (inactive)	26.9 µM (inactive)	68.5 µM (inactive)	> 100 µM (inactive)	> 100 µM (inactive)	> 100 µM (inactive)	> 100 µM (inactive)	> 100 µM (inactive)	> 100 µM (inactive)	> 100 µM (inactive)	> 100 µM (inactive)	> 100 µM (inactive)
O=C(O)c1cc2c(cc1CC(Cc1ccc3c(c1)CCCC3)C(=O)O)CCCC2 (stereo not given)	32.8 µM (inactive)	64.4	> 100 µM (inactive)	63.2 µM (inactive)	> 100 µM (inactive)	> 100 µM (inactive)	< 0.01 µM (active)	31.2 µM (inactive)	> 100 µM (inactive)	32.9 µM (inactive)	> 100 µM (inactive)	> 100 µM (inactive)	> 100 µM (inactive)	> 100 µM (inactive)	> 100 µM (inactive)	83 µM (inactive)	> 100 µM (inactive)	90.6 µM (inactive)	> 100 µM (inactive)	34.4 µM (inactive)
N=C1OC(c2c[nH]c3ccc(OCc4ccccc4)cc23)C(O)=C1O (stereo not given)	> 100 µM (inactive)	> 100	> 100 µM (inactive)	> 100 µM (inactive)	> 100 µM (inactive)	> 100 µM (inactive)	> 100 µM (inactive)	> 100 µM (inactive)	> 100 µM (inactive)	0.951 µM (active)	> 100 µM (inactive)	> 100 µM (inactive)	> 100 µM (inactive)	59.2 µM (inactive)	> 100 µM (inactive)	> 100 µM (inactive)	> 100 µM (inactive)	> 100 µM (inactive)	> 100 µM (inactive)	> 100 µM (inactive)
NN	740 µM (inactive)	296	480 µM (inactive)	303 µM (inactive)	445 µM (inactive)	88.7 µM (inactive)	625 µM (inactive)	335 µM (inactive)	434 µM (inactive)	1040 µM (inactive)	235 µM (inactive)	188 µM (inactive)	357 µM (inactive)	317 µM (inactive)	574 µM (inactive)	525 µM (inactive)	358 µM (inactive)	809 µM (inactive)	594 µM (inactive)	582 µM (inactive)
